Residues, ends and D or L forms follow the SMILES beside them. *: point of attachment. Bz = O=C(c1ccccc1)*
Compared with CCOC(=O)C1=C(C(C)C)Nc2n[nH]cc2C1c1ccccc1[N+](=O)[O-] (stereo not drawn), CCOC(=O)c1ncn2c1[C@@H]1CCN1C(=O)c1cc(F)ccc1-2 is higher in melting point: 205 to 206 °C for the first, 226 to 227 °C for the second.

First: Cc1ccccc1NC(=O)Nc1ccc(C(=O)N2CCCCc3sccc32)cc1
Second: Cc1cc(C(=O)N2Cc3cccn3Cc3ccccc32)ccc1NC(=O)c1ccccc1C
The melting point of the first is higher: 179 to 182 °C for the first, 125 to 130 °C for the second.

Compared with Cc1nnc(-c2ccc3scc(-c4ccc(S(C)(=O)=O)cc4)c3c2)o1, Cc1nnc(-c2ccc3occ(-c4ccc(F)cc4)c3c2)o1 is lower in melting point: 231 to 232 °C for the first, 130 to 131 °C for the second.

First: CC1(C)Oc2ccc(C#N)cc2[C@@H](NC(=O)c2ccc(Cl)cc2)[C@@H]1O (relative stereo)
Second: COC(=O)c1ccc(OCC(C)NCC(O)c2cccc(Cl)c2)cc1 (stereo not drawn)
The melting point of the first is higher: 226 to 229 °C for the first, 99 to 101 °C for the second.

First: CN(C)c1cc(C=O)cc(N(C)C)c1N1CCCCC1
Second: Nc1ccc(S(=O)(=O)c2cc(-c3ccsc3)nc(N3CCCC3)c2)cc1
The melting point of the first is lower: 114 to 116 °C for the first, 260 °C for the second.

First: O=C1NCc2c1cc1ccc3c(c1c2-c1ccc(OCc2ccccc2)cc1)OCO3
Second: COc1ccc(-c2ccc3cc(OC)ccc3c2)cc1
The melting point of the first is higher: 257 to 260 °C for the first, 190 °C for the second.

First: CC(C)c1cnc(NC(=O)Cc2csc(NC(=O)CN(C)C)n2)s1
Second: COC(=O)c1cc(CO)ccc1S(=O)(=O)NC(=O)Nc1nc(OC)cc(OC)n1
The melting point of the first is lower: 70 to 71 °C for the first, 182 to 185 °C for the second.

First: CCCCCCCCCCCCCCCCCC(CCC(=O)O)(CCC(=O)O)[N+](=O)[O-]
Second: CCCCCS(=O)(=O)NC(=O)/C(C)=C/c1ccc(OCCCOC)cc1Oc1ncc(Cl)cc1Cl
The melting point of the first is lower: 102 °C for the first, 116 to 117 °C for the second.

First: CCc1c(-c2ccc(O)cc2)c2ccc3ccc(COCCN4CCCCC4)c1n32
Second: CCCNC(=O)Nc1ccc(-c2cn3c(n2)C(OC2CCN(C)CC2)c2ccccc2CC3)cc1 (stereo not drawn)
The melting point of the first is lower: 68 to 75 °C for the first, 130 °C for the second.

First: CCOc1ccc(S(=O)(=O)N2CCN(C)CC2)cc1-c1nc2cccnc2c(=O)[nH]1
Second: COc1ccc(C)cc1N1CCN(C(=O)Nc2cc3ccccc3nc2OC)CC1
The melting point of the first is higher: 212 to 215 °C for the first, 115 to 116 °C for the second.

First: Nc1c(F)cc(C=O)c(F)c1Br
Second: NCC1CN(c2cc(F)c(-c3cccnc3)c(F)c2)C(=O)O1 (stereo not drawn)
The melting point of the first is lower: 132 to 133 °C for the first, 143 to 145 °C for the second.

Compared with NNC1=NS(=O)(=O)c2cc(Cl)ccc21, COc1ccc(Cl)cc1C(=O)NCCc1ccc(C=CC(=O)O)cc1 is lower in melting point: 277 °C for the first, 197 to 198 °C for the second.

First: COC(=O)c1ccc(OCCNC(=O)c2ccc(F)cc2)cc1
Second: O=C(O)c1cccc(NCCOc2cccc3ccccc23)c1
The melting point of the first is lower: 105 to 107 °C for the first, 150 to 152 °C for the second.

Compared with Cc1ccc(C2CCN(C(=O)CCC(=O)c3ccc4c(c3)CCN(C(=O)C(F)(F)F)CC4)CC2)cc1, Cc1ccc(Sc2ccc(C(=O)O)cc2)cc1 is lower in melting point: 132 to 134 °C for the first, 105 to 107 °C for the second.

Compared with CC(C)(C)OC(=O)Nc1ccc2ccc(S(C)(=O)=O)cc2c1, NNC(=S)Nc1ccc2ccccc2c1 is lower in melting point: 179 to 180 °C for the first, 174 to 176 °C for the second.

Compared with Cc1ccc(-c2ccccc2)c(C)c1CO, CN(C)C=Nc1ccc(-n2ncnc2-c2ccccc2)cc1 is higher in melting point: 77 to 78 °C for the first, 109 to 111 °C for the second.

First: Cc1ccc(C(=O)c2noc(CS(=O)c3ccccc3)n2)cc1 (stereo not drawn)
Second: CCn1nc(-c2ccccc2)c(C(=O)CCc2ccccc2)c(N)c1=O
The melting point of the first is lower: 97 to 99 °C for the first, 115 to 116 °C for the second.

First: CCOc1ccccc1O[C@@H]1CN(CC)C[C@H]1O (relative stereo)
Second: C=C(C(N)=O)N1CCC(c2ccc(OC(C)=O)c(OC)c2)C1c1ccccc1 (stereo not drawn)
The melting point of the first is lower: 73 to 75 °C for the first, 113 to 116 °C for the second.

Compared with Nc1nccnc1OCc1cccnc1, Cc1cc(N2CCN(Cc3ccc(N)cc3)C2=O)sc1C(=O)NCc1cccnc1 is lower in melting point: 120 to 122 °C for the first, 118 to 120 °C for the second.

Compared with CCNC(=O)[C@H](C)NC(=O)[C@H](C)NC(=O)c1ccccc1 (Bz-Ala-Ala-NHEt), COC(=O)C(CS)NC(=O)CNC(=O)CS (stereo not drawn) is lower in melting point: 237 to 239 °C for the first, 67 to 69 °C for the second.

First: CC(=O)SCCC(=O)N1CCC=C1C(=O)O
Second: CC(C)(C)CCC/C(=C\c1ccc(C(=O)O)cc1)Cn1ccnc1
The melting point of the first is lower: 89 to 91 °C for the first, 190 to 192 °C for the second.

Compared with COc1cc2nc(N3CCN(c4nc5c([nH]4)CCCCC5)CC3)nc(N)c2cc1OC, CCOc1cc(N)c(Cl)cc1C(=O)NCC1CN(CC2CCN(C#N)CC2)CCO1 (stereo not drawn) is lower in melting point: > 250 °C for the first, 197 °C for the second.

First: CC#COc1ccc2oc3ccccc3c(=O)c2c1
Second: COc1ccc2oc(Cc3ccccc3OC)c(CC#N)c2c1
The melting point of the first is higher: 153 to 154 °C for the first, 122 °C for the second.

First: N#CC(=Cc1ccc2c(c1)OCO2)CN1CCOCC1
Second: NC(=O)C1COc2c(F)cccc2O1 (stereo not drawn)
The melting point of the first is lower: 82 to 84 °C for the first, 167 °C for the second.

First: Cc1sc2c(c1C)CNC(Cl)=N2
Second: CC(C)(C)c1nc(S(C)(=O)=O)n(-c2c(Cl)cc(Cl)cc2Cl)n1
The melting point of the first is lower: 170 to 172 °C for the first, 179 to 180 °C for the second.

Compared with Oc1c(Cl)cc(NCCCCCCBr)cc1Cl, CSCC#Cc1cc(F)c2ncc(C(=O)NCc3ccc(Cl)cc3)c(O)c2c1 is higher in melting point: 182 to 183 °C for the first, 259 to 261 °C for the second.

First: O=C1c2cccc3cccc(c23)C(=O)N1CCCCO
Second: CC(CO)(CCCCN1C(=O)c2ccccc2C1=O)c1ccccc1 (stereo not drawn)
The melting point of the first is lower: 105 to 108 °C for the first, 149 to 150 °C for the second.

First: O=S(=O)(c1c(F)c(F)c(F)c(F)c1F)c1c(F)c(F)c(F)c(F)c1F
Second: CCOC(=O)C1CN2c3c(c(F)c(F)c(F)c3C1=O)CCN2C (stereo not drawn)
The melting point of the first is lower: 129 °C for the first, 236 to 240 °C for the second.

First: CC(C)(C)NC(=O)c1nn(-c2ccc(F)cc2Cl)c2c1C1CCC2C1 (stereo not drawn)
Second: O=C(CCCN1CCC(c2noc3cc(F)ccc23)CC1)c1cc2c(s1)CCCNC2=O
The melting point of the first is lower: 122 to 124 °C for the first, 142 to 143 °C for the second.

Compared with O=C1CCC2(CCOC2=O)C(=O)C1 (stereo not drawn), CCC(CC)COc1ccc(S(=O)(=O)C2(C(=O)NO)CCN(Cc3ccccc3)CC2)cc1 is lower in melting point: 145 to 148 °C for the first, 114 °C for the second.

First: O[C@@H]1C=C[C@H](n2cnc3c(NCC(c4ccccc4)c4ccccc4)ncnc32)C1 (racemic)
Second: N#Cc1ccc(OCC[C@@H](NC(=O)OCc2ccccc2)C(=O)OC(c2ccccc2)c2ccccc2)cc1
The melting point of the first is higher: 165 to 169 °C for the first, 125 to 126 °C for the second.

First: NC1CCN(c2ncc3ncnc(Nc4ccc(F)c(Cl)c4)c3n2)C1 (stereo not drawn)
Second: O=C(O)C1=Cc2cc(Cl)c(Oc3ccc(Cl)cc3Cl)cc2OC1C(F)(F)F (stereo not drawn)
The melting point of the first is lower: 174 to 176 °C for the first, 233 to 234 °C for the second.

First: FC(F)(F)c1c[nH]cc1-c1cccc(Cl)c1Cl
Second: C#CCNC(=O)N1CC(Oc2ccc(C(F)(F)F)cc2)C1
The melting point of the first is lower: 63 to 65 °C for the first, 135 to 137 °C for the second.

First: Cc1ccnc2c1C(=O)CC(c1ccccc1Br)C2 (stereo not drawn)
Second: N#Cc1ccc(-c2cc(=O)c3cccnc3o2)cc1
The melting point of the first is lower: 106 to 107 °C for the first, 250 to 252 °C for the second.

First: CCN1C(Oc2ccc(C)cc2)=NS(=O)(=O)N=C1Oc1ccc(C)cc1
Second: CNC(=O)CN(C)Cc1ccc(CCn2cnc3cc(-c4ccc(Cl)cc4)sc3c2=O)cc1
The melting point of the first is higher: 302 to 304 °C for the first, 146 to 149 °C for the second.

Compared with O=C(Nc1c(Cl)cncc1Cl)c1ccc(OC(F)F)c2oc3ccc([N+](=O)[O-])cc3c12, COC(=O)c1ccc([N+](=O)[O-])cc1S(=O)(=O)O is lower in melting point: > 270 °C for the first, 92 to 94 °C for the second.

O=C1C(c2ccccc2)=C(c2ccccc2)C(=O)N1Cc1cccc(F)c1 showed a melting point of 107 to 108 °C.

— a melting point compilation (Tetko et al.; mined from patent text by program, amines drawn as free bases though some values may be those of a salt)
